Measured values: US8748601B2, “Selective serine/threonine kinase inhibitors” (The Regents of the University of California, priority 2003, dated 2014)

How the values were obtained:
Rsk2 CTD [1] = molecular target: T1, Rsk2 CTD (Homo sapiens, UniProt P51812); assay: Rsk2 CTD in vitro kinase assay, wild type; format: biochemical
T1 construct: We tested the halomethylketones against the Rsk2 CTD by adapting an in vitro kinase assay; made in house
Source text: (§1) We tested the halomethylketones against the Rsk2 CTD by adapting an in vitro kinase assay developed by Chrestensen and Sturgill, J, Biol. Chem. 277:27733 (2002).

Rsk2 CTD Cys436Val = molecular target: T2, Rsk2 CTD Cys436Val (Homo sapiens, UniProt P51812, C436V); assay: Rsk2 CTD in vitro kinase assay, Cys436Val mutant; format: biochemical
T2 construct: we expressed and purified two CTD mutants, Cys436Val and Thr493Met; made in house
Source text: as §1

Rsk2 CTD Thr493Met = molecular target: T3, Rsk2 CTD Thr493Met (Homo sapiens, UniProt P51812, T493M); assay: Rsk2 CTD in vitro kinase assay, Thr493Met mutant; format: biochemical
T3 construct: we expressed and purified two CTD mutants, Cys436Val and Thr493Met; made in house
Source text: as §1

Rsk2 CTD [2] = molecular target: Rsk2 CTD (Chlorocebus sabaeus, UniProt A0A0D9RPY4); assay: EGF-stimulated Ser386 phosphorylation in COS-7 cells; format: cell-based; conditions: read-out: Reduction of Ser386 phosphorylation
Source text: (§2) The only known Rsk2 CTD substrate is an autophosphorylation site, Ser386, in the linker region connecting the NTD and CTD. Phosphorylation of Ser386 creates a docking site for another kinase, phosphoinositide-dependent kinase 1 (PDK1), which phosphorylates and activates the NTD. […] The signaling pathway between EGF and Erk1/2 involves at least three protein kinases (EGFR, Raf, and MEK), two of which (EGFR and Raf) have threonine gatekeepers and cysteines in their ATP binding pockets (albeit at different locations relative to Rsk2 Cys436).

Erk1/2 = assay: EGF-stimulated Erk1/2 phosphorylation (Thr202, Tyr204) in COS-7 cells; format: cell-based; conditions: 10 μM
Source text: as §2

Rsk1 = molecular target: T4, Rsk1 (Homo sapiens, UniProt Q15418); assay: Suppression of labeling by biotinylated fmk in human epithelial cell lysate, Rsk1; format: binding; conditions: pretreatment with unlabeled compound
T4 construct: a crude lysate prepared from human epithelial cells; endogenous in cells
Source text: A major concern with any pharmacological agent is its selectivity, not only among related family members, but among all other coexpressed proteins. To determine the global kinetic selectivity of fmk 5, we added a biotinylated derivative to a crude lysate prepared from human epithelial cells. Only two proteins in the lysate were labeled. […] Affinity purified antibodies raised against a Rsk1 peptide specifically immunoprecipitated the lower band, whereas a Rsk2 monoclonal antibody was specific for the upper band. Both proteins remained in the supernatant when a control rabbit IgG was used.

Rsk2 [3] = molecular target: Rsk2 (Homo sapiens, UniProt P51812); assay: Suppression of labeling by biotinylated fmk in human epithelial cell lysate, Rsk2; format: binding; conditions: pretreatment with unlabeled compound
Source text: A major concern with any pharmacological agent is its selectivity, not only among related family members, but among all other coexpressed proteins.

Chemical stability = format: physicochemical; conditions: compared with cmk 4
Rsk2 [4] = assay: Labeling by biotin-1 / bodipy-1 in Xenopus egg cytosol and competition by unlabeled compound; format: binding; conditions: for Labeling of 90 kD protein by bodipy-1 after pretreatment: pretreatment with 1 μM
Protocol: To test whether compounds 1 and 2 (Formula IA, chloromethyl ketone and methyl enoate respectively) bind selectively and irreversibly to Rsk2, compound 1 was labeled with biotin. Xenopus egg cytosol was treated with 1 μM biotin-1. A major biotinylated 90 kD protein was detected by immunoblot analysis with streptavidin-HRP. Labeling of p90 with biotin-1 was abolished by pretreatment of the cytosol 1 μM of unlabeled 1. Thus, p90 is completely saturated by 1 at a concentration of 1 μM.
Labeling was abolished by pretreatment with 1 μM of 1 or 2.

Rsk = Rsk autophosphorylation of Ser381 in Swiss 3T3 cells (Western blot); format: cell-based; conditions: 5 μM, 1 hour, growth factors 10 min
Protocol: (§3) Enoate 2 blocks Rsk autophosphorylation of Ser381, which is catalyzed by its cysteine-containing C-terminal kinase domain. […] Swiss 3T3 cells were serum starved for 24 hours and treated with 5 μM enoate or 0.1% DMSO (control) for 1 hour. The cells were then stimulated with growth factors for 10 min. and lysed with 1×SDS-PAGE sample buffer. Proteins were separated by SDS-PAGE and transferred to nitrocellulose membranes for Western blot analysis. Phosphorylation-specific antibodies against Rsk and Erk were purchased from Cell Signaling. Antibodies against nonphosphorylated Rsk and Erk were purchased from Santa Cruz Biotech and Cell Signaling, respectively. (FIG. 4.)

Erk = Erk phosphorylation in Swiss 3T3 cells (Western blot); format: cell-based; conditions: 5 μM, 1 hour, growth factors 10 min
Protocol: as §3

animal carcinoma model = conditions: compared with reversible quinazoline inhibitors; cited from earlier work
V281C v-Src (v-Src-es1) [5] = molecular target: T5, V281C v-Src (v-Src-es1) (UniProt P00524, V281C, species not given); assay: Covalent labeling by biotin-cmk in NIH3T3 fibroblasts expressing v-Src-es1; format: cell-based
T5 construct: other: pretreatment of intact cells; lysates treated with biotin; Labeling of v-Src-es1 by biotin-cmk after pretreatment; other: pretreatment of intact cells with 1 μM
Source text: (§4) To test whether cmk 4 could covalently label and inhibit Src kinases in vivo, we generated NIH3T3 fibroblast cell lines that stably overexpress either a wt v-Src allele or an electrophile-sensitive mutant, V281C v-Src (v-Src-es1). v-Src is constitutively active, and as a result of its expression in these cells, there is a substantial increase in phosphotyrosine levels. […] To test whether cmk 4 forms an irreversible, covalent bond with V281C v-Src, we conjugated biotin to the hydroxypropyl substituent. This point of attachment was chosen based on the model of cmk 4 bound to Hck in which the hydroxypropyl substituent is pointing out into solution.
(§5) NIH3T3 fibroblasts expressing either v-Src-es1 or v-Src were pretreated with increasing concentrations of cmk 4. Whole cells lysates were then prepared and treated with biotin-cmk (2 μM).

v-Src-es1 = assay: Global phosphotyrosine levels in NIH3T3 cells expressing v-Src-es1; format: cell-based
Source text: (§6) We also investigated whether cmk 4 could block the function of v-Src-es1 in mammalian cells by monitoring global phosphotyrosine levels in cells expressing either wt v-Src or v-Src-es1.

wt v-Src [6] = assay: Global phosphotyrosine levels in NIH3T3 cells expressing wt v-Src; format: cell-based
Source text: as §6

[7] = system: NIH3T3 cells expressing v-Src-es1; assay: Reversion of transformed morphology in cells expressing v-Src-es1; format: cell-based; conditions: 1 μM, 16 h
Source text: (§7) Overexpression of v-Src in NIH3T3 fibroblasts causes morphological transformation. Nontransformed NIH3T3 cells have a flat morphology, characterized by long bundles of filamentous actin (“stress fibers”) that can be visualized by fluorescence microscopy. In contrast, NIH3T3 cells overexpressing wt v-Src or v-Src-es1 have a disorganized actin cytoskeleton that results in a round morphology. […] Under the same conditions, cells expressing wt v-Src are not affected by cmk 4 and maintain a round morphology (FIG. 8A). The effects of cmk 4 on cell morphology were quantified by counting 100-200 cells under each treatment condition for both wt v-Src and v-Src-es1. Approximately 80% of the cells expressing v-Src-es1 regain a flattened morphology upon treatment with 1 μM cmk 4, whereas less than 2% of cells expressing wt v-Src have actin stress fibers (FIG. 8B).

[8] = system: NIH3T3 cells expressing wt v-Src; assay: Reversion of transformed morphology in cells expressing wt v-Src; format: cell-based; conditions: 1 μM, 16 h
Source text: as §7

Val285Cys Fyn = Val285Cys Fyn (Homo sapiens, UniProt P06241, V285C); assay: Inactivation of engineered Val285Cys Fyn; format: biochemical
wt Fyn = wt Fyn (Homo sapiens, UniProt P06241); assay: wt Fyn kinase activity in vitro; conditions: 30 nM
V281C v-Src (v-Src-es1) [9] = assay: Covalent labeling by biotin-cmk in NIH3T3 fibroblasts expressing v-Src-es1; format: cell-based; conditions: biotin-cmk 2 μM, whole cell lysates
Source text: as §4, §5

wt v-Src [10] = assay: Covalent labeling by biotin-cmk in NIH3T3 fibroblasts expressing wt v-Src; format: cell-based; conditions: biotin-cmk 2 μM, whole cell lysates
Source text: as §4, §5

Q: Which results are given for `Cc1ccc(-c2c(C(=O)CF)n(CCCO)c3ncnc(N)c23)cc1` [fmk 5]?
A: Inhibition of kinase activity of Rsk2 CTD (Rsk2 CTD [1]): potently inhibited; Half-time of inactivation of Rsk2 CTD (Rsk2 CTD [1]; 1 μM, 1 mM ATP): less than 10 min; Inhibition and covalent modification of Cys436Val mutant (Rsk2 CTD Cys436Val): resistant to inhibition and covalent modification; Inhibition and covalent modification of Thr493Met mutant (Rsk2 CTD Thr493Met): resistant to inhibition and covalent modification; inhibition at 3 µM (Rsk2 CTD [2]): 95%; EGF-stimulated phosphorylation of Erk1/2 Thr202 and Tyr204 (Erk1/2): no effect; Concentration for complete saturation of Rsk1 (Rsk1): 0.3 µM; Concentration for complete saturation of Rsk2 (Rsk2 [3]): 1 µM; Chemical stability (Chemical stability): greater chemical stability

Q: Which results are given for `COC(=O)/C=C/c1c(-c2ccc(C)cc2)c2c(N)ncnc2n1CCCO` [Compound 2]?
A: Labeling of 90 kD protein by bodipy-1 after pretreatment (Rsk2 [4]): abolished; Rsk autophosphorylation of Ser381 (Rsk): blocks; Erk phosphorylation (Erk): does not block

Q: With `Cc1ccc(-c2cn(CCCO)c3ncnc(N)c23)cc1` [scaffold A] as the compound, how does the “Fold weaker than fmk 5 toward WT Rsk2” value (Rsk2 CTD [1]) read?
A: The value was 80 fold.

Q: And the IC50 (Rsk2 CTD [1]; Rsk2 CTD WT, read-out: IC50 values, WT)?
A: Its IC50 is 1200 ± 80 nM.

Q: What about the “Potency relative to fmk 5 against the Cys436Val mutant” value (Rsk2 CTD Cys436Val) of the same compound?
A: Its value is “much more potent than fmk 5”.

Q: What about the IC50 (Rsk2 CTD Cys436Val; Rsk2 CTD C436V) of the same compound?
A: The IC50 was 430 ± 140 nM.

Q: What about the IC50 (Rsk2 CTD Thr493Met; Rsk2 CTD mutant, read-out: IC50 values, T439M) of the same compound?
A: Its IC50 is over 30000 nM.

Q: For `C=CC(=O)Nc1ccc2ncnc(Nc3cccc(Br)c3)c2c1` [PD 168393], which “Efficacy in an animal carcinoma model” value (animal carcinoma model) is on record?
A: Its value is “far superior to reversible quinazoline inhibitors”.

Q: With `Cc1ccc(-c2c(C(=O)CCl)n(CCCO)c3ncnc(N)c23)cc1` [cmk 4] as the compound, how does the “Concentration at which p90 is completely saturated” value (Rsk2 [4]; Xenopus egg cytosol) read?
A: Its value is 1 µM.

Q: And the “Labeling of p90 with biotin-1 after pretreatment with unlabeled compound” value (Rsk2 [4]; pretreatment of the cytosol 1 μM, streptavidin-HRP immunoblot)?
A: Its value is “abolished”.

Q: And the “Labeling of 90 kD protein by bodipy-1 after pretreatment” value (Rsk2 [4])?
A: Its value is “abolished”.

Q: What about the “Labeling of v-Src-es1 by biotin-cmk after pretreatment” value (V281C v-Src (v-Src-es1) [5]; pretreatment of intact cells with 1 μM) of the same compound?
A: The value was “abolished”.

Q: What about the IC50 (V281C v-Src (v-Src-es1) [5]; read-out: IC50 for blocking labeling of v-Src-es1 by biotin-cmk, pretreatment of intact cells, lysates treated with biotin-cmk 2 μM) of the same compound?
A: Its IC50 is under 100 nM.

Q: And the “Detectable phosphotyrosine in cells overexpressing v-Src-es1” value (v-Src-es1; 1 μM)?
A: The value was “near-complete reduction”.

Q: What about the “Tyrosine phosphorylation in cells overexpressing v-Src-es1” value (v-Src-es1; increasing concentrations) of the same compound?
A: The value was “dose-dependent decrease”.

Q: And the “Function of mutant v-Src in mammalian cells” value (v-Src-es1; summary statement)?
A: The value was “irreversibly blocked the function”.

Q: What about the “Phosphotyrosine in cells overexpressing wt v-Src” value (wt v-Src [6]; 1 μM) of the same compound?
A: The value was “no apparent effect”.

Q: What about the “Effect on wt v-Src in mammalian cells” value (wt v-Src [6]; summary statement) of the same compound?
A: The value was “no effect”.

Q: What about the “Cells expressing v-Src-es1 that regain a flattened morphology” value [7] of the same compound?
A: Its value is “Approximately 80%”.

Q: What about the “Transformed morphology of cells expressing v-Src-es1” value ([7]; FITC-phallodin staining) of the same compound?
A: The value was “caused reversion of the transformed morphology”.

Q: And the “Cells expressing wt v-Src that have actin stress fibers” value [8]?
A: Its value is “less than 2%”.

Q: And the “Morphology of cells expressing wt v-Src” value [8]?
A: The value was “not affected”.

Q: And the “Inhibition of kinase activity of Rsk2 CTD” value (Rsk2 CTD [1])?
A: Its value is “potently inhibited”.

Q: What about the “Fold more potent than fmk 5 toward Val285Cys Fyn” value (Val285Cys Fyn) of the same compound?
A: Its value is 100 fold.

Q: And the “Inactivation of engineered Fyn with cysteine in place of Val285” value (Val285Cys Fyn; 30 nM)?
A: The value was “rapidly inactivated”.

Q: And the “Time to inactivate Val285Cys Fyn” value (Val285Cys Fyn; 100 nM, 1 mM ATP)?
A: The value was “less than 5 min”.

Q: And the “Effect on wild-type (WT) Fyn” value (wt Fyn)?
A: Its value is “no effect”.

Q: For `Cc1ccc(-c2c(C(=O)CCl)n(CCCOC(=O)NCCCCNC(=O)CCCCC3SCC4NC(=O)NC43)c3ncnc(N)c23)cc1` (stereo not drawn) [biotin-cmk], which “Covalent labeling of v-Src-es1” value (V281C v-Src (v-Src-es1) [9]) is on record?
A: The value was “covalently targeted v-Src-es1”.

Q: What about the “Covalent labeling of wt v-Src” value (wt v-Src [10]) of the same compound?
A: Its value is “absence of covalent labeling”.
